The source of these data is patent US8637511B2, “Aminopyrimidines useful as kinase inhibitors” (Vertex Pharmaceuticals Incorporated, priority 2005, dated 2014).

For experiment [1], the target named is Aurora-1 (Aurora B) (Homo sapiens, UniProt Q96GD4). Put plainly: Aurora-1 (Aurora B) inhibition assay (radiometric). In kind it is biochemical. The note with it: read-out: Aurora B kinase Ki value. The method, boiled down:
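Ki values come from non-linear regression of background-corrected initial-rate data. The enzyme was preincubated 10 min at 25° C with compound, then reacted 3 h with 800 μM (final) [γ-^33P]-ATP in HEPES pH 7.5/MgCl2/BSA/glycerol buffer. The reaction was stopped with phosphoric acid and substrate-bound ^33P counted on phosphocellulose.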

Experiment [2] concerns Colo205 cells. The experiment in a line: Analysis of cell proliferation and viability. In kind it is cell-based. The settings on record: Homo sapiens, COLO 205, Colo205 cells, read-out: IC50 value.
Experiment [3] deals with T1, FLT-3 (Homo sapiens, UniProt P36888).
T1 sequence (P36888 27-993): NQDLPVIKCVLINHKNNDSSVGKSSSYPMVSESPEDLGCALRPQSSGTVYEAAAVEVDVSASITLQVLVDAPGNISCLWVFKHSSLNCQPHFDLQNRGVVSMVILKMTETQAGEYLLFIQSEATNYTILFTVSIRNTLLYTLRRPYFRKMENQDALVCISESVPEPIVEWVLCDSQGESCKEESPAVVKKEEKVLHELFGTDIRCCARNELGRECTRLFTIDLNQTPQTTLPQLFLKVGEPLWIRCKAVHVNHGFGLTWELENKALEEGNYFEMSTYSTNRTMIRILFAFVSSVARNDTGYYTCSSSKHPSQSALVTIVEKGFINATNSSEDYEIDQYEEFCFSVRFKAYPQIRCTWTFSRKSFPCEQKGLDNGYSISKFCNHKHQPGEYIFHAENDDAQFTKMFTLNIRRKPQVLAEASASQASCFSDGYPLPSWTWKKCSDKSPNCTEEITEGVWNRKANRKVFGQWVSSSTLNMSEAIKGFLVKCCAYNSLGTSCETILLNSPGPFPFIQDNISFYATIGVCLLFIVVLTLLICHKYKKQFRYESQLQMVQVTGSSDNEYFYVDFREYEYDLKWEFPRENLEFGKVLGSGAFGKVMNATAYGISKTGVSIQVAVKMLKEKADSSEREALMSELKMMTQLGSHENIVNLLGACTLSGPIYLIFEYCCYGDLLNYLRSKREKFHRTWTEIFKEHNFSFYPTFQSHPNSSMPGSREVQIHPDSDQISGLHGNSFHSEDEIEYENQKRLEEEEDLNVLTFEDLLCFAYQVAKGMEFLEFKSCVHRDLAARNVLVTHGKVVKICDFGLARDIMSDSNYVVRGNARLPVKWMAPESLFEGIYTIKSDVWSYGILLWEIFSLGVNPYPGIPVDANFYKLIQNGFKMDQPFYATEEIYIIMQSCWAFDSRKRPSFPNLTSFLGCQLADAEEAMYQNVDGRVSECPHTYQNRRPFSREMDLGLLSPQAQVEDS
The experiment in a line: FLT-3 inhibition assay, radiometric filter-binding. In kind it is biochemical.

Structures are written as SMILES. pIC50, pKi: −log10 of the molar value. “And” between values parts separate entries of the source, which are not always exact repeats. Equal entries are not always repeated. Where two headings read alike, the source gives them in different places. Bounds are passed on as bounds.

Chain of Aurora-1 (Aurora B) (Q96GD4 whole entry): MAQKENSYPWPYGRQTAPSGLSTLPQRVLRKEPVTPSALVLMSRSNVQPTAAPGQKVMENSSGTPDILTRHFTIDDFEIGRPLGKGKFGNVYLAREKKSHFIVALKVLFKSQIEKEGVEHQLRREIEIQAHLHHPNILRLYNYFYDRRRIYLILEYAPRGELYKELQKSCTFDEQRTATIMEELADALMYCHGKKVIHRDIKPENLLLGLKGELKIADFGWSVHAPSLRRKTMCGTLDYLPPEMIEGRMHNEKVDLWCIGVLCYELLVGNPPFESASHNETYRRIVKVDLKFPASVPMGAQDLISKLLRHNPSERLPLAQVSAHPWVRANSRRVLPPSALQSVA

What is called pKi is −log10 of the Ki, conventionally taken in molar units. Broadly, the pIC50 is −log10 of the IC50, conventionally taken in molar units. `Cc1cc(Nc2cc(N3CC(O)(C4CC4)C3)nc(Sc3ccc(NC(=O)C4CC4)c(F)c3)n2)[nH]n1` [Compound 109]: the pKi in experiment [1] was 7.30 to 8.00; in experiment [3] (read-out: FLT-3 Ki value), not below 7.30. The pIC50 in experiment [2] (incubated for 96 hours) is 6.00 to 7.30.

Take `CCC(=O)Nc1ccc(Sc2nc(Nc3cc(C)n[nH]3)cc(N3CC(OC(C)(C)C)C3)n2)cc1` [Compound 67]: the pKi in experiment [1] was 5.70 to 7.30; in experiment [3] (read-out: FLT-3 Ki value) it was 6.82 to 7.30. The pIC50 in experiment [2] (incubated for 96 hours) was 6.00 to 7.30.

As to `Cc1cc(Nc2cc(N3CC(N4CCCC4)C3)nc(Sc3ccc(NC(=O)CC(F)(F)F)cc3)n2)[nH]n1` [Compound 204], the pKi in experiment [1] is not below 8.00; in experiment [3] it was 6.82 to 7.30. In experiment [2] (incubated for 72 hours), the pIC50 is not below 7.52.

With `Cc1cc(Nc2cc(N3CC(C)(F)C3)nc(Sc3ccc(NC(=O)CC(F)(F)F)cc3)n2)n[nH]1` [Compound 168, N-(4-(4-(5-methyl-1H-pyrazol-3-ylamino)-6-(3-fluoro-3-methylazetidin-1-yl)pyrimidin-2-ylthio)phenyl)-3,3,3-trifluoropropanamide], the figures for the pKi in experiment [1] and in experiment [3] were not below 8.00 and not below 7.30, respectively. In addition, the pIC50 in experiment [2] (incubated for 72 hours) is 6.70 to 7.52.

`CCC(=O)Nc1ccc(Sc2nc(Nc3cc(C)n[nH]3)cc(N3CC(OC)(C(C)(C)C)C3)n2)cc1` [Compound 90]: the negative-log Ki (pKi) in experiment [1] was not below 8.00; in experiment [3], not below 7.30. Besides, the pIC50 in experiment [2] (incubated for 96 hours) is not below 7.30.

Take `CCC(=O)Nc1ccc(Sc2nc(Nc3cc(C)n[nH]3)cc(N3CC(C)(N4CCOCC4)C3)n2)cc1` [Compound 88]: the pKi in experiment [1] was not below 8.00; in experiment [3], not below 7.30. For the same compound, the pIC50 in experiment [2] (incubated for 96 hours) was not below 7.30.

As to `Cc1cc(Nc2cc(N3CC(F)(C4CC4)C3)nc(Sc3ccc(NC(=O)CN(C)C)cc3)n2)[nH]n1` [Compound 152], the pKi is not below 8.00 in experiment [1] and 6.00 to 6.82 in experiment [3]. In experiment [2] (incubated for 72 hours), the pIC50 is 6.70 to 7.52.

Consider `Cc1cc(Nc2cc(N3CC(C)(O)C3)nc(Sc3ccc(NC(=O)c4ccccc4Cl)cc3)n2)[nH]n1` [Compound 50], for which the pKi in experiment [1] was not below 8.00; in experiment [3] it was not below 7.30. Moreover, the pIC50 was not below 7.52 in experiment [2] (incubated for 72 hours) and not below 7.30 in experiment [2] (incubated for 96 hours).

On to `Cc1cc(Nc2cc(N3CC(O)(C4CC4)C3)nc(Sc3ccc4nc(C(F)(F)F)n(C)c4c3)n2)[nH]n1` [Compound 155], for which the values for the negative-log Ki (pKi) in experiment [1] and in experiment [3] were not below 8.00 and 6.82 to 7.30, respectively. In addition, the pIC50 in experiment [2] (incubated for 96 hours) is not below 7.30.

Regarding `Cc1cc(Nc2cc(N3CC(F)(C4CC4)C3)nc(Oc3ccc(NC(=O)CC(F)(F)F)cc3)n2)[nH]n1` [Compound 144], the pKi in experiment [1] was 7.30 to 8.00 and > 7.60; in experiment [3], not below 7.30. Besides, the pIC50 in experiment [2] (incubated for 72 hours) was not below 7.52.

For `COC1(C)CN(c2cc(Nc3cc(C)n[nH]3)nc(Sc3ccc(NC(=O)c4ccccc4Cl)cc3)n2)C1` [Compound 51], the negative logarithm of the Ki (pKi) is not below 8.00 in experiment [1] and 6.82 to 7.30 in experiment [3]. Besides, the results for the pIC50 in experiment [2] (incubated for 72 hours) and in experiment [2] (incubated for 96 hours) were not below 7.52 and not below 7.30, respectively.

With `CCC(=O)Nc1ccc(Sc2nc(Nc3cc(C)n[nH]3)cc(N3CC(C)(N4CCCC4)C3)n2)cc1` [Compound 89], the pKi in experiment [1] is not below 8.00; in experiment [3] (read-out: FLT-3 Ki value), not below 7.30. Besides, the negative logarithm of the IC50 (pIC50) was not below 7.52 in experiment [2] (incubated for 72 hours) and not below 7.30 in experiment [2] (incubated for 96 hours).

With `Cc1cc(Nc2cc(N3CCC3)nc(Sc3ccc(NC(=O)Cc4ccccc4Cl)cc3)n2)[nH]n1` [Compound 57], the pKi is not below 8.00 in experiment [1] and 6.00 to 6.82 in experiment [3] (read-out: FLT-3 Ki value). Besides, the pIC50 in experiment [2] (incubated for 96 hours) was 6.00 to 7.30.

For `CC(C)=C1CN(c2cc(Nc3cc(C)n[nH]3)nc(Sc3ccc(NC(=O)CC(F)(F)F)cc3)n2)C1` [Compound 184], the negative-log Ki (pKi) in experiment [1] is 7.30 to 8.00 and > 7.60; in experiment [3], 6.82 to 7.30. In addition, the pIC50 in experiment [2] (incubated for 72 hours) is 6.70 to 7.52.

With `CC(C)(C)c1cc(Nc2cc(N3CCC3)nc(Sc3ccc(NC(=O)c4ccccc4Cl)cc3)n2)n[nH]1` [Compound 69], the pKi in experiment [1] was 5.70 to 7.30; in experiment [3], 6.00 to 6.82.

With `CCOC1CN(c2cc(Nc3cc(C)[nH]n3)nc(Sc3ccc(NC(=O)c4ccccc4Cl)cc3)n2)C1` [Compound 37], the figures for the pKi in experiment [1] and in experiment [3] were not below 8.00 and 6.82 to 7.30, respectively. The pIC50 in experiment [2] (incubated for 96 hours) was 6.00 to 7.30.

As for `CCC(=O)Nc1ccc(Sc2nc(Nc3cc(C)n[nH]3)cc(N3CC(N4CCOCC4)C3)n2)cc1` [Compound 68], the pKi in experiment [1] was 5.70 to 7.30; in experiment [3] (read-out: FLT-3 Ki value), 6.82 to 7.30. In addition, in experiment [2] (incubated for 96 hours), the pIC50 was 6.00 to 7.30.

Take `Cc1cc(Nc2cc(N3CC(OC(C)C)C3)nc(Sc3ccc(NC(=O)c4ccccc4Cl)cc3)n2)n[nH]1` [Compound 38]: the pKi in experiment [1] is not below 8.00; in experiment [3] it was 6.00 to 6.82. In experiment [2] (incubated for 96 hours), the pIC50 was not below 7.30.

Take `Cc1cc(Nc2cc(N3CC(F)(C4CC4)C3)nc(Sc3cnc4ccccc4c3)n2)[nH]n1` [Compound 206]: the pKi is 7.30 to 8.00 in experiment [1] and not below 7.30 in experiment [3]. Besides, the pIC50 in experiment [2] (incubated for 72 hours) is less than 6.70.

Take `Cc1cc(Nc2cc(N3CC(C)(C(C)(C)F)C3)nc(Sc3ccc(NC(=O)CC(F)(F)F)cc3)n2)[nH]n1` [Compound 183]: the pKi in experiment [1] is not below 8.00; in experiment [3] it was not below 7.30. Besides, the pIC50 in experiment [2] (incubated for 72 hours) was not below 7.52.

On to `Cc1cc(Nc2cc(N3CC(F)(C4CC4)C3)nc(Sc3ccc(C(=O)NCC(F)(F)F)cc3)n2)[nH]n1` [Compound 205], for which the pKi in experiment [1] was 7.30 to 8.00 and > 7.60; in experiment [3], 6.82 to 7.30. Besides, in experiment [2] (incubated for 72 hours), the pIC50 is not below 7.52.

Turning to `COCc1cc(Nc2cc(N3CCC3)nc(Sc3ccc(NC(=O)c4ccccc4Cl)cc3)n2)n[nH]1` [Compound 82], the pKi is 5.70 to 7.30 in experiment [1] and 6.00 to 6.82 in experiment [3].

In the case of `Cc1cnc(Nc2cc(N3CC(F)(C4CC4)C3)nc(Oc3ccc(NC(=O)CC(F)(F)F)cc3)n2)s1` [Compound 181], the pKi is 7.30 to 8.00 in experiment [1] and not below 7.30 in experiment [3]. Further, the negative-log IC50 (pIC50) in experiment [2] (incubated for 72 hours) was 6.70 to 7.52.

As to `Cc1cc(Nc2cc(N3CCC3)nc(Sc3ccc(NC(=O)c4cnccc4C(F)(F)F)cc3)n2)[nH]n1` [Compound 59], the pKi was not below 8.00 in experiment [1] and 6.00 to 6.82 in experiment [3]. Moreover, the negative-log IC50 (pIC50) was less than 6.70 in experiment [2] (incubated for 72 hours) and 6.00 to 7.30 in experiment [2] (incubated for 96 hours).

As for `Cc1cc(Nc2nc(Sc3ccc(NC(=O)CC(F)(F)F)cc3)nc(N3CC(F)(C4CC4)C3)c2F)[nH]n1` [Compound 178], the pKi is 7.30 to 8.00 in experiment [1] and 6.00 to 6.82 in experiment [3]. For the same compound, the pIC50 in experiment [2] (incubated for 72 hours) is 6.70 to 7.52.

As to `Cc1cc(Nc2cc(N3CC(O)(C4CC4)C3)nc(Sc3ccc4nc(C(F)(F)F)ccc4c3)n2)[nH]n1` [Compound 186], the pKi in experiment [1] was not below 8.00; in experiment [3], 6.82 to 7.30. The pIC50 in experiment [2] (incubated for 72 hours) was 6.70 to 7.52.

Take `Cc1cc(Nc2cc(N3CC(F)(C4CC4)C3)nc(Sc3ccc(NS(C)(=O)=O)cc3)n2)[nH]n1` [Compound 151]: the pKi in experiment [1] is 5.70 to 7.30; in experiment [3], not below 7.30. Also, the pIC50 in experiment [2] (incubated for 72 hours) was 6.70 to 7.52.

As to `Cc1cc(Nc2cc(N3CC(C)(C#N)C3)nc(Sc3ccc(NC(=O)CC(F)(F)F)cc3)n2)[nH]n1` [Compound 169], the pKi in experiment [1] is not below 8.00; in experiment [3], not below 7.30. Besides, the pIC50 in experiment [2] (incubated for 72 hours) is 6.70 to 7.52.

As to `Cc1cc(Nc2cc(N3CC(OC(=O)CN(C)C)(C4CC4)C3)nc(Sc3ccc(NC(=O)C4CC4)cc3)n2)n[nH]1` [Compound 119], the pKi in experiment [1] was not below 8.00; in experiment [3] (read-out: FLT-3 Ki value), not below 7.30. In addition, the negative logarithm of the IC50 (pIC50) in experiment [2] (incubated for 72 hours) is 6.70 to 7.52.

Regarding `Cc1cc(Nc2cc(N3CC(F)(C4CC4)C3)nc(Sc3ccc(NC(=O)C4(C)CC4)cc3)n2)[nH]n1` [Compound 203], the pKi in experiment [1] is 5.70 to 7.30; in experiment [3] (read-out: FLT-3 Ki value), 6.00 to 6.82. The negative logarithm of the IC50 (pIC50) in experiment [2] (incubated for 72 hours) was 6.70 to 7.52.
